The source of these data is PubChem BioAssay AID190 (DTP/NCI, 2004).

Several values for one entry are separate records, joined by “and”; a condition that tells them apart may be missing. Identical values can stand only once. Toxic doses and inconclusive results are not listed.

The test system of this assay is AKR/Lw mice, AKR lymphoma ip, median survival T/C. Put plainly: NCI In Vivo Anticancer Drug Screen. Data for tumor model Lymphoma AKR (Transplanted) (intraperitoneal) in AKR/Lw mice. Conditions: endpoint: median survival time, higher = longer survival. The method, then:
The antitumor activity of compounds was measured in mice bearing transplantable tumors. Survival or tumor size were measured and the results are expressed as the measurement made in the treated group (T) divided by the measurement made in the vehicle treated control group (C). The tumor model used in this assay is Lymphoma AKR (Transplanted) (intraperitoneal) in AKR/Lw mice

The mark [1] stands for this setting: dose: 100.0 mg/kg/injection, schedule: Q01DX001 (ip), vehicle: saline.
[2] abbreviates: dose: 200.0 mg/kg/injection, schedule: Q01DX001 (ip), vehicle: saline.
Setting [3] is: dose: 400.0 mg/kg/injection, schedule: Q01DX001 (ip), vehicle: saline.
The mark [4] stands for this setting: dose: 50.0 mg/kg/injection, schedule: Q04DX003 (ip), vehicle: Klucel (hydroxypropylcellulose) (HPC).
Where [5] appears, read: dose: 100.0 mg/kg/injection, schedule: Q01DX001 (ip), vehicle: Klucel (hydroxypropylcellulose) (HPC).
The mark [6] stands for this setting: dose: 100.0 mg/kg/injection, schedule: Q04DX003 (ip), vehicle: Klucel (hydroxypropylcellulose) (HPC).
Setting [7] is: dose: 200.0 mg/kg/injection, schedule: Q01DX001 (ip), vehicle: Klucel (hydroxypropylcellulose) (HPC).
Setting [8] is: dose: 200.0 mg/kg/injection, schedule: Q04DX003 (ip), vehicle: Klucel (hydroxypropylcellulose) (HPC).

Regarding `CC[C@](O)(C(=O)O)c1cc2n(c(=O)c1CO)Cc1cc3ccccc3nc1-2`, the T/C was 94 % of control (dose: 0.02 mg/kg/injection, schedule: Q01DX009 (ip), vehicle: saline); 105 % of control (dose: 0.05 mg/kg/injection, schedule: Q01DX009 (ip), vehicle: saline); 106 % of control (dose: 0.06 mg/kg/injection, schedule: Q01DX009 (ip), vehicle: saline); 100 % of control and 103 % of control (dose: 0.1 mg/kg/injection, schedule: Q01DX009 (ip), vehicle: saline); 100 % of control and 114 % of control (dose: 0.12 mg/kg/injection, schedule: Q01DX009 (ip), vehicle: saline); 106 % of control (dose: 0.15 mg/kg/injection, schedule: Q01DX009 (ip), vehicle: saline). The T/C was 106 % of control (dose: 0.35 mg/kg/injection, schedule: Q01DX009 (ip), vehicle: saline); 101 % of control (dose: 0.37 mg/kg/injection, schedule: Q01DX009 (ip), vehicle: saline); 118 % of control (dose: 0.4 mg/kg/injection, schedule: Q01DX009 (ip), vehicle: saline); 96 % of control (dose: 0.6 mg/kg/injection, schedule: Q01DX009 (ip), vehicle: saline); 88 % of control (dose: 0.6 mg/kg/injection, schedule: Q04DX003 (ip), vehicle: saline); 117 % of control (dose: 0.75 mg/kg/injection, schedule: Q01DX009 (ip), vehicle: saline). Also, the T/C is, setting by setting: (dose: 1.2 mg/kg/injection, schedule: Q04DX003 (ip), vehicle: saline) 97 % of control and 104 % of control; (dose: 1.25 mg/kg/injection, schedule: Q01DX001 (ip), vehicle: saline) 121 % of control; (dose: 2.5 mg/kg/injection, schedule: Q01DX001 (ip), vehicle: saline) 107 % of control; (dose: 2.5 mg/kg/injection, schedule: Q01DX009 (ip), vehicle: saline) 88 % of control and 113 % of control; (dose: 3.7 mg/kg/injection, schedule: Q04DX003 (ip), vehicle: saline) 106 % of control; (dose: 5.0 mg/kg/injection, schedule: Q01DX001 (ip), vehicle: saline) 102 % of control and 114 % of control. Further, the T/C (dose: 7.5 mg/kg/injection, schedule: Q04DX003 (ip), vehicle: saline) was 112 % of control; the T/C (dose: 12.5 mg/kg/injection, schedule: Q01DX001 (ip), vehicle: saline) is 120 % of control; the T/C (dose: 15.0 mg/kg/injection, schedule: Q04DX003 (ip), vehicle: saline) was 150 % of control; the T/C (dose: 18.0 mg/kg/injection, schedule: Q01DX001 (ip), vehicle: saline) was 95 % of control; the T/C (dose: 30.0 mg/kg/injection, schedule: Q04DX003 (ip), vehicle: saline) is 103 % of control and 115 % of control; the T/C (dose: 40.0 mg/kg/injection, schedule: Q01DX001 (ip), vehicle: saline) is 113 % of control. The T/C (dose: 80.0 mg/kg/injection, schedule: Q01DX001 (ip), vehicle: saline) was 97 % of control.

As to `COc1cc([C@@H]2c3cc4c(c(O)c3C[C@H]3COC(=O)[C@@H]32)OCO4)cc(OC)c1O`, the T/C by setting is: (dose: 0.12 mg/kg/injection, schedule: Q01DX009 (ip), vehicle: Klucel (hydroxypropylcellulose) (HPC)) 105 % of control; (dose: 0.25 mg/kg/injection, schedule: Q01DX009 (ip), vehicle: Klucel (hydroxypropylcellulose) (HPC)) 97 % of control.

Turning to `ClC1=C(Cl)C2(Cl)C3(Cl)C(Cl)=C(Cl)C(Cl)(C34OCCO4)C2(Cl)C12OCCO2` (configuration not stated), the T/C was 96 % of control under setting [1], 108 % of control under setting [2] and 108 % of control under setting [3].

Take `CCCCCCCCC(=O)N1CC(C)OC(C)C1` (configuration not stated): the T/C reads like this: under setting [1], 100 % of control; under setting [2], 94 % of control; under setting [3], 100 % of control.

As for `CN(C)/N=N/c1nc[nH]c1C(N)=O`, the T/C runs as follows: (dose: 12.5 mg/kg/injection, schedule: Q01DX009 (ip), vehicle: saline) 120 % of control; (dose: 25.0 mg/kg/injection, schedule: Q01DX009 (ip), vehicle: saline with Tween-80) 111 % of control; (dose: 25.0 mg/kg/injection, schedule: Q01DX009 (ip), vehicle: saline) 106 % of control and 123 % of control; (dose: 25.0 mg/kg/injection, schedule: Q04DX003 (ip), vehicle: Klucel (hydroxypropylcellulose) (HPC)) 102 % of control; (dose: 37.5 mg/kg/injection, schedule: Q04DX003 (ip), vehicle: Klucel (hydroxypropylcellulose) (HPC)) 116 % of control; (dose: 50.0 mg/kg/injection, schedule: Q01DX001 (ip), vehicle: Klucel (hydroxypropylcellulose) (HPC)) 102 % of control. In addition, the T/C by setting is: (dose: 50.0 mg/kg/injection, schedule: Q01DX005 (ip), vehicle: water) 116 % of control; (dose: 50.0 mg/kg/injection, schedule: Q01DX009 (ip), vehicle: saline with Tween-80) 111 % of control; under setting [4], 105 % of control; (dose: 75.0 mg/kg/injection, schedule: Q04DX003 (ip), vehicle: Klucel (hydroxypropylcellulose) (HPC)) 102 % of control; (dose: 90.0 mg/kg/injection, schedule: Q01DX005 (ip), vehicle: Klucel (hydroxypropylcellulose) (HPC)) 158 % of control; under setting [5], 90 % of control and 113 % of control. Further, the T/C is 105 % of control and 107 % of control under setting [1]; 120 % of control (dose: 100.0 mg/kg/injection, schedule: Q01DX005 (ip), vehicle: water); 100 % of control and 123 % of control (dose: 100.0 mg/kg/injection, schedule: Q01DX009 (ip), vehicle: Klucel (hydroxypropylcellulose) (HPC)); 111 % of control (dose: 100.0 mg/kg/injection, schedule: Q01DX009 (ip), vehicle: saline with Tween-80); 87 % of control under setting [6]; 186 % of control and 188 % of control (dose: 135.0 mg/kg/injection, schedule: Q01DX005 (ip), vehicle: Klucel (hydroxypropylcellulose) (HPC)). Also, the T/C reads like this: (dose: 150.0 mg/kg/injection, schedule: Q01DX009 (ip), vehicle: saline) 111 % of control; under setting [7], 123 % of control; under setting [2], 107 % of control (2×) and 113 % of control; (dose: 200.0 mg/kg/injection, schedule: Q01DX005 (ip), vehicle: Klucel (hydroxypropylcellulose) (HPC)) 97 % of control; (dose: 200.0 mg/kg/injection, schedule: Q01DX005 (ip), vehicle: water) 114 % of control; (dose: 200.0 mg/kg/injection, schedule: Q01DX009 (ip), vehicle: Klucel (hydroxypropylcellulose) (HPC)) 100 % of control and 123 % of control. The T/C runs as follows: (dose: 200.0 mg/kg/injection, schedule: Q01DX009 (ip), vehicle: saline with Tween-80) 117 % of control; under setting [8], 100 % of control and 121 % of control and 122 % of control; (dose: 250.0 mg/kg/injection, schedule: Q04DX003 (ip), vehicle: Klucel (hydroxypropylcellulose) (HPC)) 111 % of control; (dose: 300.0 mg/kg/injection, schedule: Q01DX001 (ip), vehicle: Klucel (hydroxypropylcellulose) (HPC)) 120 % of control and 123 % of control; (dose: 350.0 mg/kg/injection, schedule: Q04DX003 (ip), vehicle: Klucel (hydroxypropylcellulose) (HPC)) 163 % of control; (dose: 500.0 mg/kg/injection, schedule: Q01DX001 (ip), vehicle: Klucel (hydroxypropylcellulose) (HPC)) 107 % of control and 111 % of control. Further, the T/C (dose: 600.0 mg/kg/injection, schedule: Q01DX001 (ip), vehicle: Klucel (hydroxypropylcellulose) (HPC)) is 110 % of control and 111 % of control; the T/C (dose: 600.0 mg/kg/injection, schedule: Q01DX009 (ip), vehicle: Klucel (hydroxypropylcellulose) (HPC)) is 102 % of control.

Turning to `Nc1ccc(OCc2ccc(S(=O)(=O)F)c(Cl)c2)c(Cl)c1`, the T/C was 88 % of control under setting [4]; 87 % of control under setting [5]; 86 % of control under setting [6]; 112 % of control (dose: 150.0 mg/kg/injection, schedule: Q01DX009 (ip), vehicle: Klucel (hydroxypropylcellulose) (HPC)); 90 % of control under setting [7]; 111 % of control under setting [8].

Regarding `COC(=O)C1(C)CCC(c2ccc(OC)cc2)CC1=O` (configuration not stated), the T/C is 113 % of control (dose: 50.0 mg/kg/injection, schedule: Q01DX001 (ip), vehicle: saline); 93 % of control under setting [4]; 105 % of control under setting [1]; 106 % of control under setting [6]; 105 % of control under setting [2]; 112 % of control under setting [8].

Take `Cc1ccc(S(=O)(=O)Nc2ccccc2-c2nc3c(Cl)ccc(Cl)c3c(=O)o2)cc1`: the T/C under setting [5] was 96 % of control; the T/C under setting [6] was 90 % of control; the T/C under setting [7] is 103 % of control; the T/C under setting [8] is 90 % of control; the T/C (dose: 400.0 mg/kg/injection, schedule: Q01DX001 (ip), vehicle: Klucel (hydroxypropylcellulose) (HPC)) was 93 % of control.
